Laboratory results as given in patent publication US11541050B2, “Pyrimidine derivatives for the treatment of viral infections” (JANSSEN SCIENCES IRELAND UC, priority 2011, dated 2023).
pEC50: −log10 of the molar value.

tested on: HCV replicon in Huh-7 luc/neo cells; test: Suppression of HCV replicon replication by conditioned media from compound-treated PBMC; format: cell-based, HCV type 1 b; conditions: Hepatitis C virus; conditioned media from compound-treated PBMC on Huh-7 luc/neo replicon cells (compounds 74 onward); read-out: PBMC HUH-7 EC50
Method: Activation of human TLR7 results in robust production of interferon by plasmacytoid dendritic cells present in human blood. The potential of compounds to induce interferon was evaluated by looking at the antiviral activity in the HCV replicon system upon incubation with conditioned media from peripheral blood mononuclear cells (PBMC). […] The assay utilized the stably transfected cell line Huh-7 luc/neo harboring an RNA encoding a bicistronic expression construct comprising the wild type NS3-NS5B regions of HCV type 1 b translated from an Internal Ribosome Entry Site (IRES) from encephalomyocarditis virus (EMCV), preceded by a reporter gene (Firefly-luciferase) and a selectable marker gene (neoR, neomycine phosphotransferase). The construct is flanked by 5′ and 3′ NTRs (non-translated regions) from HCV type 1 b. Continued culture of the replicon cells in the presence of G418 (neoR) is dependent on the replication of the HCV RNA. The stably transfected replicon cells that replicate HCV RNA autonomously and to high levels, encoding inter alia luciferase, were used for profiling of the conditioned cell culture media.
Briefly, PBMCs were prepared from buffy coats of at least two donors using a standard Ficoll centrifugation protocol. Isolated PBMCs were resuspended in RPMI medium supplemented with 10% human AB serum and 2×10^5 cells/well were dispensed into 384-well plates containing compounds (70 μL total volume). After overnight incubation, 10 μL of supernatant was transferred to 384-well plates containing 2.2×10^3 replicon cells/well in 30 μL (plated the day before). Following 24 hours of incubation, replication was measured by assaying luciferase activity using 40 μL/well Steady Lite Plus substrate (Perkin Elmer) and measured with ViewLux ultraHTS microplate imager (Perkin Elmer). […] Recombinant interferon α-2a (Roferon-A) was used as a standard control compound.

| Structure (SMILES) | pEC50 |
| --- | --- |
| CCCCNc1nc(N)ncc1OCCCc1ccc(OC)c(OC)c1 [Compound 74] | 6.80 |
| CCCCNc1nc(N)ncc1OCCCCCc1ccccc1 [Compound 111] | 7.02 |
| CCCCNc1nc(N)ncc1OCCCc1ccc(C(F)(F)F)cc1 [Compound 153] | 5.46 |

biological target: T1, human TLR7 (wild type sequence) (Homo sapiens, UniProt Q9NYK1); test: TLR7 cellular NFκB-luc reporter assay, wild type TLR7; format: cell-based; set-up: unit not given here; conditions: lowest effective concentration, wild type TLR7
T1 construct: expressed in transfected cells; host or cells: HEK293
T1 sequence (Q9NYK1 27-1049): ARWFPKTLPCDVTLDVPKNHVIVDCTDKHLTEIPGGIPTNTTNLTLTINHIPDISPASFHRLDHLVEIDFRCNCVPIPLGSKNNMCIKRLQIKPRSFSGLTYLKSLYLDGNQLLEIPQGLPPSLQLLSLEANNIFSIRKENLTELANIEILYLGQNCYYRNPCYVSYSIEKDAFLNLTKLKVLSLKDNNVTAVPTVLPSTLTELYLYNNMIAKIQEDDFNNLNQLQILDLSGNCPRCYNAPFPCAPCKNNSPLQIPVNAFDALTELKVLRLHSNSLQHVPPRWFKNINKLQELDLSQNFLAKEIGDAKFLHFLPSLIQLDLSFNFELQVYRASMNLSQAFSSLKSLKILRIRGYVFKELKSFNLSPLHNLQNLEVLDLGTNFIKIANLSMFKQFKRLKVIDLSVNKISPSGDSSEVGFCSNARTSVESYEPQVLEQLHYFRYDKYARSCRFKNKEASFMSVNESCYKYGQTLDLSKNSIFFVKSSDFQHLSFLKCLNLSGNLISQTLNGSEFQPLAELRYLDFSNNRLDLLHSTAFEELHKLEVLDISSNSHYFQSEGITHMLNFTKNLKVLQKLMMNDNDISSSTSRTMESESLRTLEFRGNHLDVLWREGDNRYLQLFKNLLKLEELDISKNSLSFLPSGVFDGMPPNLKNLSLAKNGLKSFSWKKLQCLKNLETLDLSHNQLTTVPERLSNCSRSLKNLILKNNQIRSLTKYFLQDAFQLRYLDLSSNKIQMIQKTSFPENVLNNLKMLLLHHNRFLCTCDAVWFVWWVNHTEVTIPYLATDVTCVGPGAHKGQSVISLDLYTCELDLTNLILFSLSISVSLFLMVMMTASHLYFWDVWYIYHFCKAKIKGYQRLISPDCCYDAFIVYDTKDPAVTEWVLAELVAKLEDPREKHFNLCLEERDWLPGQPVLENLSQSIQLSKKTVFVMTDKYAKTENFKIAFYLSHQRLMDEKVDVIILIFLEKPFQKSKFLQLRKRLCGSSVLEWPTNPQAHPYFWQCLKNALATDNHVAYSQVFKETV
Method: (§1) The ability of compounds to activate human TLR7 and/or TLR8 was assessed in a cellular reporter assay using HEK293 cells transiently transfected with a TLR7 or TLR8 expression vector and NFκB-luc reporter construct. In one instance the TLR expression construct expresses the respective wild type sequence or a mutant sequence comprising a deletion in the second leucine-rich repeat of the TLR.
(§2) Briefly, HEK293 cells were grown in culture medium (DMEM supplemented with 10% FCS and 2 mM Glutamine). For transfection of cells in 10 cm dishes, cells were detached with Trypsin-EDTA, transfected with a mix of CMV-TLR7 or TLR8 plasmid (750 ng), NFκB-luc plasmid (375 ng) and a transfection reagent and incubated for 48 hours at 37° C. in a humidified 5% CO2 atmosphere. Transfected cells were then detached with Trypsin-EDTA, washed in PBS and resuspended in medium to a density of 1.67×10^5 cells/mL. Thirty microliters of cells were then dispensed into each well in 384-well plates, where 10 μL of compound in 4% DMSO was already present. Following 6 hours incubation at 37° C., 5% CO2, the luciferase activity was determined by adding 15 μl of Steady Lite Plus substrate (Perkin Elmer) to each well and readout performed on a ViewLux ultraHTS microplate imager (Perkin Elmer). Dose response curves were generated from measurements performed in quadruplicates. Lowest effective concentrations (LEC) values, defined as the concentration that induces an effect which is at least two fold above the standard deviation of the assay, were determined for each compound.

| TLR7-wt_LEC | Structure (SMILES) |
| --- | --- |
| 0.512 | CCCCNc1nc(N)ncc1OCc1cnccn1 [Compound 199] |
| 0.277 | CCCCNc1nc(N)ncc1OCc1nc2ccccc2s1 [Compound 222] |
| 0.206 | CCCCNc1nc(N)ncc1OCc1cc2ccccn2n1 [Compound 224] |
| >25 | CCCC[C@H](CCO)Nc1nc(N)ncc1OC [Compound 229] |
| 10.070 | CCCCNc1nc(N)ncc1OC(C)C [Compound 233] |
| 10.790 | COc1cnc(N)nc1N[C@H](CCO)CC(C)C [Compound 261] |
| 10.380 | CCC(C)[C@H](CCO)Nc1nc(N)ncc1OC (stereo partly shown) [Compound 275] |

same assay, conditions: lowest effective concentration, wild type TLR7 (compounds 1-73)

| TLR7-wt_LEC | Structure (SMILES) |
| --- | --- |
| 0.90 | CCCCNc1nc(N)ncc1OCc1ccccc1 [Compound 1] |
| 6.18 | CCCCNc1nc(N)ncc1OCCC [Compound 5] |
| 1.53 | CCCCNc1nc(N)ncc1OCCCc1ccccc1 [Compound 19] |
| 21.26 | CCCC(CO)Nc1nc(N)ncc1OC (stereo not shown) [Compound 62] |
| 21.59 | CCCC(C)Nc1nc(N)ncc1OC (stereo not shown) [Compound 65] |

same assay, conditions: lowest effective concentration, wild type TLR7 (compounds 74 onward)

| TLR 7 wt LEC | Structure (SMILES) |
| --- | --- |
| 0.519 | CCCCNc1nc(N)ncc1OCc1cccnn1 [Compound 78] |
| >25 | C=CCNc1nc(N)ncc1OC [Compound 90] |
| >25 | COc1cnc(N)nc1NCCC1CC1 [Compound 91] |
| >25 | COc1cnc(N)nc1N[C@H](CO)CC(C)C [Compound 93] |
| 0.008 | CCCCNc1nc(N)ncc1OCc1nccc2ccccc12 [Compound 123] |
| 0.333 | CCCCNc1nc(N)ncc1OCc1ccc2ccccc2n1 [Compound 157] |
| 11.850 | CCCCNc1nc(N)ncc1OCCCc1ccccc1C(F)(F)F [Compound 162] |
| 0.810 | CCCCNc1nc(N)ncc1OCc1nc(C)oc1C [Compound 178] |
| 0.135 | CCCCNc1nc(N)ncc1OCc1nccc(OC)c1OC [Compound 180] |
| 0.014 | CCCCNc1nc(N)ncc1OCc1nn(C)c2ccccc12 [Compound 182] |
| 0.286 | CCCCNc1nc(N)ncc1OCc1csc(C)n1 [Compound 191] |
| 0.032 | CCCCNc1nc(N)ncc1OCc1nc2ccccc2[nH]1 [Compound 193] |

| Structure (SMILES) | TLR 7 wt LEC |
| --- | --- |
| CCCCNc1nc(N)ncc1OCCCc1ccc(OC)c(OC)c1 [Compound 74] | 0.713 |
| CCCCNc1nc(N)ncc1OCCCCCc1ccccc1 [Compound 111] | 0.257 |
| CCCCNc1nc(N)ncc1OCCCc1ccc(C(F)(F)F)cc1 [Compound 153] | 10.640 |

biological target: T2, human TLR8 (wild type sequence) (Homo sapiens, UniProt Q9NR97); test: TLR8 cellular NFκB-luc reporter assay, wild type TLR8; format: cell-based; set-up: unit not given here; conditions: lowest effective concentration
T2 construct: expressed in transfected cells; host or cells: HEK293
T2 sequence (Q9NR97 27-1041): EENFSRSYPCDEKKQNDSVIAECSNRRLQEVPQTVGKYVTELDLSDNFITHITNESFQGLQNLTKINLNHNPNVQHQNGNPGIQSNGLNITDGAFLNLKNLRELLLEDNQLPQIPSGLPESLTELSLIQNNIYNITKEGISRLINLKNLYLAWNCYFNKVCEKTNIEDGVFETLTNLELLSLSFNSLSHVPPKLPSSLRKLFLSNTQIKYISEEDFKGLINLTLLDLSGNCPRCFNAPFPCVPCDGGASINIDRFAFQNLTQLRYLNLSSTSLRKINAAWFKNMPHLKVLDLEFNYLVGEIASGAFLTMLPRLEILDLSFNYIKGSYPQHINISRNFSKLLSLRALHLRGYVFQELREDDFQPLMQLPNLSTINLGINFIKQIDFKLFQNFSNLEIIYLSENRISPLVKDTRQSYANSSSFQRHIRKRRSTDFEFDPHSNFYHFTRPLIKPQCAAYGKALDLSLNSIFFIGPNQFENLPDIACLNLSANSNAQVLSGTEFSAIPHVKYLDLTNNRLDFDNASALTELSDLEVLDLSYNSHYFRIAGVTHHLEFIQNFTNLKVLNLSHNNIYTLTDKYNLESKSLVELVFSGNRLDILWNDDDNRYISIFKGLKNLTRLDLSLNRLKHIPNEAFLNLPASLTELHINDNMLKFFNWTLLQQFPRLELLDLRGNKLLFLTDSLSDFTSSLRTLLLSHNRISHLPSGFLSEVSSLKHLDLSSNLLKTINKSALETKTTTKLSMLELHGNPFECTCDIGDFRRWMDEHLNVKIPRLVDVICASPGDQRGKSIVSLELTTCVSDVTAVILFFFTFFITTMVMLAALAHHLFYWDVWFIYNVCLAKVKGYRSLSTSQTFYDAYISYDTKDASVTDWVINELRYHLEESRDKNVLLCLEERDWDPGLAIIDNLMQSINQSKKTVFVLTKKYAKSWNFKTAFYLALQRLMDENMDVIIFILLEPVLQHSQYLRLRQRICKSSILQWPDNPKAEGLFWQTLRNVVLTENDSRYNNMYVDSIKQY
Method: as §1, §2

| TLR8-wt_LEC | Structure (SMILES) |
| --- | --- |
| 0.218 | CCCCNc1nc(N)ncc1OCc1cnccn1 [Compound 199] |

same assay, conditions: lowest effective concentration, wild type TLR8 (compounds 1-73)

| TLR8-wt_LEC | Structure (SMILES) |
| --- | --- |
| 2.42 | CCCCNc1nc(N)ncc1OCc1ccccc1 [Compound 1] |
| 4.53 | CCCCNc1nc(N)ncc1OCCC [Compound 5] |
| 7.94 | CCCCNc1nc(N)ncc1OCCCc1ccccc1 [Compound 19] |
| 1.68 | CCCCNc1nc(N)ncc1OCc1c(C)noc1C [Compound 36] |
| 0.83 | CCCCNc1nc(N)ncc1OCc1ccc2ccccc2n1 [Compound 41] |
| 1.15 | CCCCNc1nc(N)ncc1OCc1nccc(OC)c1OC [Compound 42] |
| 1.75 | CCCCNc1nc(N)ncc1OCc1cc(C)nn1C [Compound 48] |
| 1.40 | CCCC[C@@H](CCO)Nc1nc(N)ncc1OC [Compound 54] |
| 0.16 | CCC[C@@H](CO)Nc1nc(N)ncc1OC [Compound 55] |
| 1.80 | CCC[C@@H](CCO)Nc1nc(N)ncc1OC [Compound 57] |
| 0.36 | CCCC[C@@H](CO)Nc1nc(N)ncc1OC [Compound 59] |
| 0.55 | CCCC(CO)Nc1nc(N)ncc1OC (stereo not shown) [Compound 62] |
| 3.68 | CCCC(C)Nc1nc(N)ncc1OC (stereo not shown) [Compound 65] |
| 9.03 | COc1cnc(N)nc1NCCCC(F)(F)F [Compound 66] |
| 0.56 | CC[C@H](C)[C@@H](CO)Nc1nc(N)ncc1OC [Compound 68] |
| 6.57 | CCC[C@H](CO)Nc1nc(N)ncc1OC [Compound 72] |
| 0.80 | CCCC[C@H](CO)Nc1nc(N)ncc1OC [Compound 73] |

same assay, conditions: lowest effective concentration, wild type TLR8 (compounds 74 onward)

| TLR 8 wt LEC | Structure (SMILES) |
| --- | --- |
| 0.827 | CCCCNc1nc(N)ncc1OCc1cccnn1 [Compound 78] |
| 8.460 | C=CCNc1nc(N)ncc1OC [Compound 90] |
| 20.850 | COc1cnc(N)nc1NCCC1CC1 [Compound 91] |
| 15.880 | COc1cnc(N)nc1N[C@H](CO)CC(C)C [Compound 93] |
| 0.143 | CCCCNc1nc(N)ncc1OCc1nccc2ccccc12 [Compound 123] |
| 1.110 | CCCCNc1nc(N)ncc1OCc1ccc2ccccc2n1 [Compound 157] |
| >25 | CCCCNc1nc(N)ncc1OCCCc1ccccc1C(F)(F)F [Compound 162] |
| 0.410 | CCCCNc1nc(N)ncc1OCc1nc(C)oc1C [Compound 178] |
| 0.524 | CCCCNc1nc(N)ncc1OCc1nccc(OC)c1OC [Compound 180] |
| 0.178 | CCCCNc1nc(N)ncc1OCc1nn(C)c2ccccc12 [Compound 182] |
| 0.743 | CCCCNc1nc(N)ncc1OCc1csc(C)n1 [Compound 191] |
| 0.654 | CCCCNc1nc(N)ncc1OCc1nc2ccccc2[nH]1 [Compound 193] |

| Structure (SMILES) | TLR 8 wt LEC |
| --- | --- |
| CCCCNc1nc(N)ncc1OCCCc1ccc(OC)c(OC)c1 [Compound 74] | 1.720 |
